Test results from patent publication US20170334899A1, “AMINO-SUBSTITUTED ISOTHIAZOLES” (Bayer Pharma Aktiengesellschaft, priority 2014, published 2017).

How the values were obtained:
Type in all cases: cell-based
HeLa = test: Proliferation assay (crystal violet), HeLa; conditions: Homo sapiens, HeLa, 96 h, HeLa cells; 4 days incubation; crystal violet staining; read-out: IC50 inhibition of proliferation, HeLa
Experimental: Cultivated tumor cells (cells were ordered from ATCC, except HeLa-MaTu and HeLa-MaTu-ADR, which were ordered from EPO-GmbH, Berlin) were plated at a density of 1000 to 5000 cells/well, depending on the growth rate of the respective cell line, in a 96-well multititer plate in 200 μL of their respective growth medium supplemented 10% fetal calf serum. After 24 hours, the cells of one plate (zero-point plate) were stained with crystal violet (see below), while the medium of the other plates was replaced by fresh culture medium (200 μl), to which the test substances were added in various concentrations (0 μM, as well as in the range of 0.001-10 μM; the final concentration of the solvent dimethyl sulfoxide was 0.5%). The cells were incubated for 4 days in the presence of test substances. Cell proliferation was determined by staining the cells with crystal violet: the cells were fixed by adding 20 μl/measuring point of an 11% glutaric aldehyde solution for 15 minutes at room temperature. After three washing cycles of the fixed cells with water, the plates were dried at room temperature. The cells were stained by adding 100 μl/measuring point of a 0.1% crystal violet solution (pH 3.0). After three washing cycles of the stained cells with water, the plates were dried at room temperature. The dye was dissolved by adding 100 μl/measuring point of a 10% acetic acid solution. Absorbtion was determined by photometry at a wavelength of 595 nm. The change of cell number, in percent, was calculated by normalization of the measured values to the aborbtion values of the zero-point plate (=0%) and the absorbtion of the untreated (0 μm) cells (=100%). The IC50 values were determined by means of a 4 parameter fit.

[1] = system: human cervical tumor cell line HeLa (ATCC CCL-2); test: SAC-Formation - Nocodazole-Induced Assay; conditions: Homo sapiens, HeLa, 24 h, HeLa cells, nocodazole 0.1 μg/ml together with test compound, decrease of mitotic cells (phospho-histone H3 Ser10)
Source text: (§1) The spindle assembly checkpoint assures the proper segregation of chromosomes during mitosis. Upon entry into mitosis, chromosomes begin to condensate which is accompanied by the phosphorylation of histone H3 on serine 10. Dephosphorylation of histone H3 on serine 10 begins in anaphase and ends at early telophase. Accordingly, phosphorylation of histone H3 on serine 10 can be utilized as a marker of cells in mitosis. Nocodazole is a microtubule destabilizing substance. Paclitaxel is a microtubule stabilizing compound. Thus, nocodazole as well as paclitaxel interfere with microtubule dynamics and mobilize the spindle assembly checkpoint. […] The mitotic breakthrough can be detected by the decrease of cells with phosphorylation of histone H3 on serine 10. This decline is used as a marker to determine the capability of compounds of the present invention to induce a mitotic breakthrough. The typical morphological alteration of nuclei with a prematurely completed mitosis after SAC-inhibition can be monitored via image analysis routines supporting those findings.
(§2) The nocodazole and paclitaxel variations were used to focus on compounds that are capable of inhibiting a SAC induced by both microtubule destabilization as well as microtubule stabilization. When SAC inducing agents and compounds are given simultaneously inhibitors that effectively block the SAC during formation or abrogation are identified. When cells are incubated with a SAC inducing agent and the SAC interfering compound is given after a defined time, inhibitors are identified that effectively block SAC abrogation.
(§3) Cultivated cells of the human cervical tumor cell line HeLa (ATCC CCL-2) were plated at a density of 1000 cells/well in a 1536-well microtiter plate in 2 μl PAA Ham's F12 Medium supplemented with 1% (v/v) glutamine, 1% (v/v) penicillin, 1% (v/v) streptomycin and 10% (v/v) fetal calf serum. After incubation overnight at 37° C., 10 μl/well nocodazole at a final concentration of 0.1 μg/ml were added to cells. Test compounds solubilized in dimethyl sulfoxide (DMSO) were added at various concentrations (0 μM, as well as in the range of 0.005 μM-20 μM; the final concentration of the solvent DMSO was 0.5% (v/v)). Cells were incubated for 24 h at 37° C. in the presence of test compounds in combination with nocodazole. Thereafter, cells were fixed in 4% (v/v) paraformaldehyde in phosphate buffered saline (PBS) at 4° C. overnight then permeabilized in 0.1% (v/v) Triton X™ 100 in PBS at room temperature for 20 min and blocked in 0.5% (v/v) bovine serum albumin (BSA) in PBS at room temperature for 15 min. After washing with PBS, 5 μl/well antibody solution (anti-phospho-histone H3 clone 3H10, FITC; Millipore, Cat#16-222; 1:1000 dilution) was added to cells, which were incubated for 2 h at room temperature. Afterwards, cells were washed with PBS and 5 μl/well solution of HOECHST 33342 dye (5 μg/ml) was added to cells and cells were incubated 15 min at room temperature in the dark. Cells were washed twice with PBS then covered with PBS and stored at 4° C. until analysis. Images were acquired with a PERKIN ELMER OPERA™ High-Content Analysis reader. Images were analyzed with image analysis software MetaXpress™ from Molecular devices utilizing the Mitotic Index application module. In this assay both labels HOECHST 33342 and phosphorylated Histone H3 on serine 10 were measured. HOECHST 33342 labels the DNA and is used to count the cell number. The staining of phosphorylated Histone H3 on serine 10 determines the number of mitotic cells. […] Otherwise cells were arrested at G2/M phase of the cell cycle progression. The raw assay data were further analyzed by four-parametric hill equation using Genedata's Assay Analyzer and Condoseo software.

[2] = system: human cervical tumor cell line HeLa (ATCC CCL-2); test: SAC-Formation - Paclitaxel-Induced Assay; conditions: Homo sapiens, HeLa, 24 h, HeLa cells, paclitaxel 0.05 μM, test range 0.005 μM-20 μM, read-out: IC50 [mol/l] SAC-Formation - Paclitaxel-Induced Assay
Source text: as §1, §2
Cultivated cells of the human cervical tumor cell line HeLa (ATCC CCL-2) were plated at a density of 1000 cells/well in a 1536-well microtiter plate in 2 μl PAA
as §3, with “Ham's” for “Cultivated cells of the human cervical tumor cell line HeLa (ATCC CCL-2) were plated at a density of 1000 cells/well in a 1536-well microtiter plate in 2 μl PAA Ham's”, “paclitaxel” for “nocodazole”, “0.05 μM” for “0.1 μg/ml”, “μM -20” for “μM-20”, “paclitaxel.” for “nocodazole.”

SMILES: Cc1nsc(Nc2cnc3ccccc3n2)c1C(=O)Nc1cccc(C(=O)N(C)CCN(C)C)c1 [Example 58, N-(3-{[2-(Dimethylamino)ethyl](methyl)carbamoyl}phenyl)-3-methyl-5-(quinoxalin-2-ylamino)-1,2-thiazole-4-carboxamide]
- IC50 (HeLa): 10000 nM
- IC50 [1]: 3000 nM
- IC50 [2]: 7300 nM

SMILES: Cc1nsc(Nc2cnc3ccccc3n2)c1C(=O)Nc1cccc(C(=O)N(C)CCO)c1 [Example 59, N-{3-[(2-hydroxyethyl)(methyl)carbamoyl]phenyl}-3-methyl-5-(quinoxalin-2-ylamino)-1,2-thiazole-4-carboxamide]
- IC50 (HeLa): 10000 nM
- IC50 [1]: 3400 nM
- IC50 [2]: 20000 nM

SMILES: Cc1nsc(Nc2cnc3ccccc3n2)c1C(=O)Nc1cccc(C(=O)NCCCN2CCCC2=O)c1 [Example 60, 3-Methyl-N-(3-{[3-(2-oxopyrrolidin-1-yl)propyl]carbamoyl}phenyl)-5-(quinoxalin-2-ylamino)-1,2-thiazole-4-carboxamide]
- IC50 (HeLa): 10000 nM
- IC50 [1]: 310 nM
- IC50 [2]: 240 nM

SMILES: Cc1nsc(Nc2cnc3ccccc3n2)c1C(=O)Nc1cccc(C(=O)N2CCC(N3CCCCC3)CC2)c1 [Example 61, N-[3-(1,4′-Bipiperidin-1′-ylcarbonyl)phenyl]-3-methyl-5-(quinoxalin-2-ylamino)-1,2-thiazole-4-carboxamide]
- IC50 (HeLa): 10000 nM
- IC50 [1]: 31 nM
- IC50 [2]: 280 nM

SMILES: C#CCN(C)C(=O)c1cccc(NC(=O)c2c(C)nsc2Nc2cnc3ccccc3n2)c1 [Example 62, 3-Methyl-N-{3-[methyl(prop-2-yn-1-yl)carbamoyl]phenyl}-5-(quinoxalin-2-ylamino)-1,2-thiazole-4-carboxamide]
- IC50 (HeLa): 10000 nM
- IC50 [1]: 440 nM
- IC50 [2]: 1500 nM

SMILES: Cc1nsc(Nc2cnc3ccccc3n2)c1C(=O)Nc1cccc(C(=O)Nc2ccc3c(c2)OCO3)c1 [Example 63, N-[3-(1,3-Benzodioxol-5-ylcarbamoyl)phenyl]-3-methyl-5-(quinoxalin-2-ylamino)-1,2-thiazole-4-carboxamide]
- IC50 (HeLa): 3600 nM
- IC50 [1]: 190 nM
- IC50 [2]: 440 nM

SMILES: Cc1nsc(Nc2cnc3ccccc3n2)c1C(=O)Nc1cccc(C(=O)NCC(F)(F)F)c1 [Example 64, 3-Methyl-5-(quinoxalin-2-ylamino)-N-{3-[(2,2,2-trifluoro-ethyl)carbamoyl]phenyl}-1,2-thiazole-4-carboxamide]
- IC50 (HeLa): 2700 nM
- IC50 [1]: 320 nM
- IC50 [2]: 1300 nM

SMILES: Cc1nsc(Nc2cnc3ccccc3n2)c1C(=O)Nc1cccc(C(=O)Nc2ccc(N3CCOCC3)cc2)c1 [Example 65, 3-Methyl-N-(3-{[4-(morpholin-4-yl)phenyl]carbamoyl}phenyl)-5-(quinoxalin-2-ylamino)-1,2-thiazole-4-carboxamide]
- IC50 (HeLa): 8200 nM
- IC50 [1]: 410 nM
- IC50 [2]: 7400 nM

SMILES: CC(=O)NCCNC(=O)c1cccc(NC(=O)c2c(C)nsc2Nc2cnc3ccccc3n2)c1 [Example 66, N-(3-{[2-(Acetylamino)ethyl]carbamoyl}phenyl)-3-methyl-5-(quinoxalin-2-ylamino)-1,2-thiazole-4-carboxamide]
- IC50 (HeLa): 10000 nM
- IC50 [1]: 720 nM
- IC50 [2]: 20000 nM

SMILES: CCN(C)C(=O)c1cccc(NC(=O)c2c(C)nsc2Nc2cnc3ccccc3n2)c1 [Example 67, N-{3-[Ethyl(methyl)carbamoyl]phenyl}-3-methyl-5-(quinoxalin-2-ylamino)-1,2-thiazole-4-carboxamide]
- IC50 (HeLa): 10000 nM
- IC50 [1]: 16 nM
- IC50 [2]: 670 nM

SMILES: Cc1nsc(Nc2cnc3ccccc3n2)c1C(=O)Nc1cccc(C(=O)N(C)CCCN(C)C)c1 [Example 68, N-(3-{[3-(Dimethylamino)propyl](methyl)carbamoyl}-phenyl)-3-methyl-5-(quinoxalin-2-ylamino)-1,2-thiazole-4-carboxamide]
- IC50 (HeLa): 10000 nM
- IC50 [1]: 110 nM
- IC50 [2]: 1100 nM

SMILES: COc1cc(CNC(=O)c2cccc(NC(=O)c3c(C)nsc3Nc3cnc4ccccc4n3)c2)cc(OC)c1OC [Example 69, 3-Methyl-5-(quinoxalin-2-ylamino)-N-{3-[(3,4,5-trimethoxy-benzyl)carbamoyl]phenyl}-1,2-thiazole-4-carboxamide]
- IC50 (HeLa): 4000 nM
- IC50 [1]: 870 nM
- IC50 [2]: 2600 nM

SMILES: CC(=O)N1CCN(C(=O)c2cccc(NC(=O)c3c(C)nsc3Nc3cnc4ccccc4n3)c2)CC1 [Example 70, N-{3-[(4-Acetylpiperazin-1-yl)carbonyl]phenyl}-3-methyl-5-(quinoxalin-2-ylamino)-1,2-thiazole-4-carboxamide]
- IC50 (HeLa): 10000 nM
- IC50 [1]: 2200 nM
- IC50 [2]: 10000 nM
